{"source": "patent US7875599B2", "about": "“C-17-heteroaryl steroidal CYP17 inhibitors/antiandrogens, in vitro biological activities, pharmacokinetics and antitumor activity” (University of Maryland, priority 2005, dated 2011)", "key": {"[1]": {"biological_target": "T1, CYP17 (Homo sapiens, UniProt P05093)", "T1 sequence (P05093 1-508)": "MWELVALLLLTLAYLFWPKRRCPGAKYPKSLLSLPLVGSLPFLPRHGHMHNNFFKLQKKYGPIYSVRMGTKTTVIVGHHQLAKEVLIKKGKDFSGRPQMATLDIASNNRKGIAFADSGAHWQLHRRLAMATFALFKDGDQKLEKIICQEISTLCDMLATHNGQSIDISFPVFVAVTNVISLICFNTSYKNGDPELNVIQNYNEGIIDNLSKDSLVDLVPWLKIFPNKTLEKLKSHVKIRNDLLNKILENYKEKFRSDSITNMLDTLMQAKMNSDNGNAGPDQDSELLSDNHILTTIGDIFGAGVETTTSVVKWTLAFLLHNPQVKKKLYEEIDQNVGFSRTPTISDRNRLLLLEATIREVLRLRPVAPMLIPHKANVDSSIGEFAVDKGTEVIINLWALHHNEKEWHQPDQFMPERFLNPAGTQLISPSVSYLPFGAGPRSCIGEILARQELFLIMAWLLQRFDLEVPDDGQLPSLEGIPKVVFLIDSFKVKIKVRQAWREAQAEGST", "assay": "CYP17 inhibition, acetic acid releasing assay with intact P450c17-expressing E. coli"}, "[2]": {"tested_on": "LNCaP cells", "assay": "LNCaP cell growth, WST-1 viability assay", "quoted_text": "(§1) To determine the effect of novel compounds on cell proliferation, cells are transferred into steroid-free medium three days prior to the start of the experiments. Steroid-free medium consisted of phenol red free RPMI supplemented with 5% dextran-coated, charcoal treated serum, and 1% penicillin/streptomycin solution. Growth studies are then performed by plating cells (3×10^4) in 24-well multi-well dishes (Corning, Inc. Corning, N.Y.). After a 24 hours attachment period, the medium is aspirated and replaced with steroid-free medium containing vehicle or the indicated concentration of DHT (1 nM) and compounds (0.1 μM-10 μM). Control wells are treated with vehicle (ethanol). This medium is changed every three days and the number of viable cells is compared by WST-1 [4-[3-(4-iodophenyl)-2-(4-nitrophenyl)-2H-5-tetrazolio]-1,3-benzene disulfonate] assay on the seventh day. Following incubation of cells for the above-mentioned time, 10% WST-1 solution is added to each well and incubated at 37° C. for three hours. Following incubation, plates are slightly shaken and immediately read at 450 nm with a scanning multi-well spectrophotometer. All results represent the average of a minimum of three wells. Additional control consists of medium alone with no cells.\n(§2) Cells were grown in steroid-free medium before plating."}, "[3]": {"tested_on": "LAPC4 cells", "assay": "LAPC4 cell growth, WST-1 viability assay", "quoted_text": "as §1, §2"}, "[4]": {"tested_on": "LNCaP mutant AR-mediated transcription", "assay": "Luciferase transactivation assay in LNCaP cells transfected with ARR2-Luc", "conditions": "18 h", "quoted_text": "Luciferase Transactivation Assay: Transcriptional activation assay is carried out as described previously by Kim et al., above, with minor modifications. […] The pRL-null (Promega) is used as the internal control. […] Luciferase activities are measured in triplicates by using dual luciferase assay system according to the manufacturer's instruction (Promega).\nThe bars represent the mean light units [counts per second (cps)/unit protein, i.e., relative luciferase activity] in triplicate wells from three separate experiments."}, "[5]": {"biological_target": "T2, human 5α-reductase type 1 (Homo sapiens, UniProt P18405)", "T2 sequence (P18405 1-259)": "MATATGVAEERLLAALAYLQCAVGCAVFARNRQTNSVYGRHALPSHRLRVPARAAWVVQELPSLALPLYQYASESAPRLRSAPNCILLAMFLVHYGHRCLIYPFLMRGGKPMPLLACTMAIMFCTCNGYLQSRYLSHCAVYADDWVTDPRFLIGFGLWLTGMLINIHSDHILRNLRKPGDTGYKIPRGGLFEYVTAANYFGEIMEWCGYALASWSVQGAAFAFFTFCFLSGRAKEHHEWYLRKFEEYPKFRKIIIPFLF", "assay": "Human 5α-reductase type 1 assay (DU-145 cell line)"}, "[6]": {"biological_target": "T1, CYP17", "assay": "UV-vis difference spectroscopy, binding to heme iron of CYP17", "parameters": "peak position of Soret maximum of the enzyme complex: unit not given here"}, "[7]": {"biological_target": "T3, human 5α-reductase type 2 (Homo sapiens, UniProt P31213)", "T3 sequence (P31213 1-254)": "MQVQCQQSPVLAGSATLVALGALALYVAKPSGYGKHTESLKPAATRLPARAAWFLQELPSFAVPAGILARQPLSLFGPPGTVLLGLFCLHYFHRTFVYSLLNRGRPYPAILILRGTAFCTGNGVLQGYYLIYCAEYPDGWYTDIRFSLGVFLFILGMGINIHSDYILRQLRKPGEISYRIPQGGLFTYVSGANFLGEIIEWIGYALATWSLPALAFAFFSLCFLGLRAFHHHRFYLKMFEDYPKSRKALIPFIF", "assay": "Human 5α-reductase type 2 assay (BPH tissue homogenate)", "conditions": "for inhibition at 10 µM: read-out: 5α-Reductase type 2 % inhibition at 10 μM"}, "[8]": {"tested_on": "LAPC4 human prostate tumor xenograft", "assay": "LAPC4 xenograft, second experiment (treatment from day after inoculation)", "assay_type": "in vivo, mouse", "description": "The second in vivo experiment tests the ability of 5 to inhibit the growth of LAPC4 prostate cancer cells growing in SCID mice, and 16 (Chart 1), a previously identified potent CYP17 inhibitor/antiandrogen (Gregoriyev et al. and Njar et al., J. Med. Chem., 1998, 41, 902-912, above) and castration are used as reference treatments. In this experiment, treatment begins on the day that mice were inoculated subcutaneously with hormone-dependent LAPC4 cells and are castrated or injected sc twice daily with 5 or 16.\nIn Vivo Antitumor Studies (LAPC-4 Prostate Cancer Xenografts): All animal studies are performed according to the guidelines and approval of the Animal Care Committee of the University of Maryland School of Medicine, Baltimore. Male severe combined immunodeficient (SCID) mice 4-6 weeks of age purchased from the National Cancer Institute-Frederick Cancer Research and Development Center (Fredrick, Md.) are housed in a pathogen-free environment under controlled conditions of light and humidity and allowed free access to food and water. Tumors are developed from LAPC4 cells inoculated subcutaneously (s.c.) in the mice essentially as previously described (21). LAPC4 cells are grown in IMEM with 15% FBS plus 1% PS and 10 nm DHT until 80% confluent. Cells are scraped into DPBS, collected by centrifugation, and resuspended in Matrigel (10 mg/ml) at 3×10^7 cells/ml. Mice are injected s.c. with 100 μl of the cell suspension at one site on each flank. Tumors are measured weekly with calipers, and tumor volumes are calculated by the formula: […]).\nIn the second experiment, mice are inoculated with LAPC4 cells and are divided into four groups of 5 mice each. The control and castrated group receiv vehicle, while the other two groups receiv either VN/85-1 (0.15 mmol/kg twice-daily, 9 a.m. and 5 p.m.) or 5 (0.15 mmol/kg twice-daily, 9 a.m. and 5 p.m.). These treatments are initiated one day after LAPC4 cell inoculation; continued for 14 weeks for control group, 19 weeks (for VN/85-1 and castration groups) and for 21 weeks for 5 treated group and tumors are measured and processed as described above.\nFIG. 7: The effects of 5, 16, and orchidectomy on the formation and growth of LAPC4 prostate tumors in male SCID mice. 3×10^7 LAPC-4 cells were injected s.c. into the dorsal flank of SCID mice. One group of mice was castrated. The other groups of mice received either vehicle or 5 (0.15 mmol/kg twice-daily) or 16 (0.15 mmol/kg twice-daily). Daily treatment with 5 or 16 was initiated 1 day after cell inoculation. Tumors volumes were measured weekly, and the percentage of change in tumor volume was determined after 16 weeks of treatment * Indicates significant difference of 5 versus control, castration and 16 at week 14 (P 0.00065, 0.05 and 0.0097, respectively). ** Indicates significant difference of 5 versus castration and 16 at week 16 (P=0.047 and 0.0047, respectively). ↓-↓↓: Period of reduced administered dose of 5."}, "[9]": {"conditions": "read-out: CYP17 IC50, intact P450c17-expressing E. coli, substrate [21-3H]-17α-hydroxypregnenolone"}}, "note": "pIC50: −log10 of the molar value. Like-named read-outs stand apart in the source and are kept apart here.", "data": [{"smiles": "C[C@]12CC[C@H](O)CC1=CC[C@@H]1[C@@H]2CC[C@]2(C)C(c3cccnc3)=CC[C@@H]12", "note": "[Abiraterone, reference compound]", "values": [{"measurement": "pIC50", "setting": "[1]", "value": 6.10}]}, {"smiles": "CC(O)(CS(=O)(=O)c1ccc(F)cc1)C(=O)Nc1ccc(C#N)c(C(F)(F)F)c1", "note": "(stereo not shown) [Casodex]", "values": [{"measurement": "pIC50", "setting": "[2]; Homo sapiens, LNCaP, 168 h, read-out: IC50, inhibition of DHT-induced LNCaP cell proliferation, 1 nM DHT, 7 days, WST-1", "value": 5.07}, {"measurement": "pIC50", "setting": "[3]; Homo sapiens, LAPC4, 168 h, read-out: IC50, inhibition of LAPC4 cell proliferation, 10 nM DHT, 7 days, WST-1", "value": 5.00}, {"measurement": "effect on luciferase activity, compound alone", "setting": "[4]; 0.1 and 10.0 μM, without DHT", "value": "no effect"}, {"measurement": "effect on luciferase expression induced by 1.0 nM DHT", "setting": "[4]; with 1.0 nM DHT", "value": "decreased in a concentration-dependent manner"}]}, {"smiles": "C[C@]12CC[C@H](O)CC1=CCC1C2CC[C@]2(C)C(n3nnc4ccccc43)=CCC12", "note": "(stereo partly drawn) [Compound 9, 3β-Hydroxy-17-(benzo-1H-1,2,3-triazol-1-yl)androsta-5,16-diene]", "values": [{"measurement": "melting point", "value": "241 to 244", "unit": "°C"}, {"measurement": "5α-Reductase type 1 % inhibition at 10 μM", "setting": "[5]; 10 μM, DU-145 cells, substrate 5 nM [1β-3H]androstenedione", "value": "ni^f"}, {"measurement": "pIC50", "setting": "[1]; [9]", "value": 5.90}, {"measurement": "peak position of Soret maximum of the enzyme complex", "setting": "[6]", "value": 426}, {"measurement": "type of difference spectrum induced", "setting": "[6]", "value": "type II difference spectrum"}, {"measurement": "inhibition at 10 µM", "setting": "[7]", "value": 17, "unit": "%"}]}, {"smiles": "C[C@]12CCC(=O)C=C1CCC1C2CC[C@]2(C)C(n3nnc4ccccc43)=CCC12", "note": "(stereo partly shown) [Compound 10, 17-(benzo-1H-1,2,3-triazol-1-yl)androsta-4,16-diene-3-one]", "values": [{"measurement": "melting point", "value": "280 to 283", "unit": "°C"}, {"measurement": "inhibition at 10 µM", "setting": "[5]; read-out: 5α-Reductase type 1 % inhibition at 10 μM", "value": 21, "unit": "%"}, {"measurement": "pIC50", "setting": "[1]; [9]", "value": 5.24}, {"measurement": "inhibition at 10 µM", "setting": "[7]", "value": 56, "unit": "%"}]}, {"smiles": "C[C@]12CC[C@H](O)CC1=CCC1C2CC[C@]2(C)C(c3cnccn3)=CCC12", "note": "(stereo partly drawn) [Compound 14, 3β-Hydroxy-17-(2-pyrazyl)-androsta-5,16-diene]", "values": [{"measurement": "pIC50", "setting": "[1]; [9]", "value": 5.42}]}, {"smiles": "C[C@]12CC[C@H](O)CC1=CC[C@@H]1[C@@H]2CC[C@]2(C)C(c3cncnc3)=CC[C@@H]12", "note": "[Compound 15, 3β-Hydroxy-17-(5-pyrimidyl)-androsta-5,16-diene]", "values": [{"measurement": "melting point", "value": "231 to 233", "unit": "°C"}, {"measurement": "pIC50", "setting": "[1]", "value": 6.30}]}, {"smiles": "C[C@]12CCC(=O)C[C@@H]1CC[C@@H]1[C@@H]2CC[C@]2(C)[C@@H](O)CC[C@@H]12", "note": "[DHT, dihydrotestosterone]", "values": [{"measurement": "stimulation of LNCaP cell proliferation compared to vehicle-treated cells", "setting": "[2]; 1 nM", "value": "about 2 fold"}, {"measurement": "induction of LAPC4 cell proliferation", "setting": "[3]; 10 nM", "value": "does not significantly induce cell proliferation"}, {"measurement": "increase of luciferase expression", "setting": "[4]; 1.0 nM", "value": "approximately 99.6 fold"}]}, {"smiles": "CC(C)(C)NC(=O)[C@H]1CC[C@H]2[C@@H]3CC[C@H]4NC(=O)C=C[C@]4(C)[C@H]3CC[C@]12C", "note": "[Finasteride, reference compound]", "values": [{"measurement": "pIC50", "setting": "[5]; read-out: 5α-Reductase type 1 [IC50], DU-145 cells, values in square brackets", "value": 7.22}, {"measurement": "pIC50", "setting": "[7]; read-out: 5α-Reductase type 2 [IC50], BPH tissue enzyme, values in square brackets", "value": 8.70}]}, {"smiles": "C[C@]12CC[C@H](O)CC1=CC[C@@H]1[C@@H]2CC[C@]2(C)C(n3ccnc3)=CC[C@@H]12", "note": "[VN/85-1, 3β-hydroxy-17-(1H-imidazole-1-yl)androsta-5,16-diene]", "values": [{"measurement": "times more potent than 5 in CYP17 inhibition", "setting": "[1]", "value": 6, "unit": "times"}, {"measurement": "pIC50", "setting": "[1]; [9]", "value": 7.30}, {"measurement": "week of therapy at which palpable and measurable tumors develop", "setting": "[8]; 0.15 mmol/kg twice-daily", "value": 11, "unit": "week"}, {"measurement": "increase of tumor volume", "setting": "[8]; 0.15 mmol/kg twice-daily s.c., week 14", "value": 3.7, "unit": "fold"}, {"measurement": "reduction of tumor volume versus control mice", "setting": "[8]; 0.15 mmol/kg twice-daily s.c., week 14 (b4 prints 50 mg/kg/twice daily)", "value": 53.8, "unit": "%"}]}]}
